Source: PMC12216609, “Inhibitors of eIF1A-ribosome interaction unveil uORF-dependent regulation of translation initiation and antitumor and antiviral effects” (The EMBO Journal, 2025)
“And” between values parts separate entries of the source, which are not always exact repeats. Equal entries are not always repeated. Where two headings read alike, the source gives them in different places.

How the values were obtained:
[1] = biological target: T1, eIF1A (Homo sapiens, UniProt P47813); assay type: binding; details: for fluorescence ratio, eIF1A: background-corrected, relative to DMSO or lowest 1Ai concentration, replicate columns; for WT eIF1A IC50: fluorescence binding
T1 construct: His-bdSUMO (cleaved yes); made in house; host or cells: E. coli BL-21

[2] = biological target: T2, eIF1A-RPS10 interaction (Homo sapiens, UniProt P46783+P47813); assay: Split-Renilla luciferase eIF1A-RPS10 interaction screen, dose-response; assay type: biochemical; details: summary table; read-out: IC50 concentration (µM), IC50 screen
T2 construct: made in house; host or cells: E. coli BL21 (PRSFduet); unpurified lysate supernatant
Experimental: While knockdown (KD) studies of eIF1A provided valuable insights into its role in mammalian cell translation (Sehrawat et al, [2019]), this approach presents several limitations. First, it fails to elucidate the functional significance of the opposing functions of eIF1A N- and C-terminal tails with respect to scanning and start codon fidelity. Second, the extended duration required for achieving efficient knockdown, 48–72 h, impairs our ability to differentiate between direct and indirect effects. To overcome these constraints, we set out to develop small-molecule inhibitors targeting eIF1A. Guided by structural and biochemical studies showing eIF1A binding to the small ribosomal subunit at the A-site and interacting directly with RPS10 through its N-terminal tail (Haimov et al, [2017]; Passmore et al, [2007]; Sehrawat et al, [2019]), our approach focused on disrupting the interaction between eIF1A and RPS10. […] The interaction between eIF1A and RPS10 brings the two parts together, leading to the reconstitution of the enzymatic activity (Haimov et al, [2017]). In this system, the spatial arrangement of the two RL parts is critical for the enzymatic activity, making it sensitive not only to direct interference with the interacting proteins but also to changes in the conformation of the fused proteins. In the eIF1A-RPS10 split-RL pair, the C-terminus of eIF1A is fused to N-RL (Fig. 1A), in order to maintain the NTT accessible to RPS10 binding. This pair was cloned and expressed in bacteria as recombinant proteins and used to screen a library of ~50,000 small molecules from diverse sources (Ashkenazi et al, [2017]).
eIF1A-ΔC-Renilla and RPS10-ΔN-Renilla were transformed into BL21 E. coli by heat shock transformation. A bacterial starter of 5 ml LB was incubated overnight at 37 °C and transferred into 1 L LB for incubation at 37 °C until OD ~ 0.5–0.7. Next, protein expression was induced with 0.5 mM IPTG, and bacterial cells were incubated overnight at 16 °C. Bacterial cell pellet was collected after centrifugation (3000 RPM, 15 min), resuspended in 20 ml TKE buffer (Tris 10 mM, KCl 100 mM, EDTA 0.1 mM), sonicated (bath sonicator, 24 cycles of 30 s) and centrifuged again (15000 RPM, 30 min). Supernatants were collected, analyzed for RL activity, and then used for high throughput drug screen (HTS) at the Weizmann G-INCPM HTS unit as described (Ashkenazi et al, [2017]). In addition to the standard controls of this protocol, the two parts of the split RL, without eIF1A or RPS10, were tested as controls. Selected compounds were purchased from Sigma-Aldrich and Enamine. Compound powders were resuspended in DMSO for a final concentration of 10 mM and stored at −20 °C.

[3] = tested on: cap-proximal AUG GFP reporter in HEK293T cells; assay type: cell-based; details: GFP WB densitometry; 20 µM overnight; dmso 0.965946
Source text: Translation from an AUG preceded by a very short 5'UTR (less than 30 nt) is usually inefficient and frequently bypassed, resulting in initiation from a downstream AUG, a phenomenon known as leaky scanning. […] To examine the impact of 1Ais on short 5'UTR initiation, we used a GFP reporter gene containing an AUG located 16 nt downstream from the 5' end followed by a second in-frame downstream AUG (Fig. 1F; Appendix Fig. S1B). Cells were transfected with this GFP reporter gene followed by exposure to DMSO (vehicle) and 1Ais. Initiations from upstream (US) or downstream (DS) AUGs were determined by western blot (WB) with anti-GFP antibodies and the ratio between the US and DS AUG was determined.
For the analysis of translation from very short 5'UTR and Leaky scanning, HEK293T cells were transfected with a GFP (20 ng/well) reporter gene driven by a cap-proximal and downstream AUGs (Elfakess et al, [2011]) together with a luciferase reporter gene (100 ng/well) as normalizing control and treated with 20 µM of 1Ais as described above. GFP levels were determined by Western blot (WB) (GFP antibody, Abcam #ab290) and quantified by densitometry (ImageJ) and normalized to the measured luciferase activity.
HEK293T cells were transfected with the GFP reporter gene schematically shown on the top. The first
AUG is […] from the 5’ end and the downstream AUG is in the same frame. Six hours after transfection, cells were treated with 1Ais. After overnight exposure to 1Ais, GFP expression was analyzed by WB using anti -GFP antibodies.
US/DS ratio was determined by densitometry and represents the long protein expression (upstream AUG, US) vs the […]
biological replicates. (C-D) Analysis of reporter genes mRNA levels after 1Ais treatment.

[4] = biological target: T3, RPS10 (Homo sapiens, UniProt P46783); assay type: binding
T3 construct: made in house; host or cells: E. coli BL-21

[5] = summary table, fluorescence binding assay
[6] = summary table, fluorescence binding assay, read-out: IC50 concentration (µM), RPS10
[7] = read-out: IC50 (line under RPS10 binding data)

T2 sequence (P47813 whole entry, one chain of several): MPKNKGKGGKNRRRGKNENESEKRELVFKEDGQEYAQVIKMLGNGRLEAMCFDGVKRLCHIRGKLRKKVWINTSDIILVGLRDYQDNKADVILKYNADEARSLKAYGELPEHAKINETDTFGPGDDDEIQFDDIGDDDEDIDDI
T1 sequence (P47813 whole entry): as the sequence (P47813 whole entry, one chain of several) above

| Structure (SMILES) | fluorescence ratio, eIF1A ([1]; 1Ai conc. 0.25 uM) | fluorescence ratio, eIF1A ([1]; 1Ai conc. 0.5 uM) | fluorescence ratio, eIF1A ([1]; 1Ai conc. 1 uM) | fluorescence ratio, eIF1A ([1]; 1Ai conc. 2 uM) | fluorescence ratio, eIF1A ([1]; 1Ai conc. 4 uM) | fluorescence ratio, eIF1A ([1]; 1Ai conc. 8 uM) | fluorescence ratio, eIF1A ([1]; 1Ai conc. 16 uM) | fluorescence ratio, eIF1A ([1]; 1Ai conc. 32 uM) | fluorescence ratio, eIF1A ([1]; 1Ai conc. 64 uM) | fluorescence ratio, eIF1A ([1]; 1Ai conc. 256 uM) | WT eIF1A IC50 [1] | IC50 concentration (µM), WT eIF1A [1, 5] | IC50 [2] | US/DS ratio, average [3] | IC50 [4, 6] | RPS10 fluorescence ratio to control ([4]; 1Ai conc. 0.25 uM) | RPS10 fluorescence ratio to control ([4]; 1Ai conc. 0.5 uM) | RPS10 fluorescence ratio to control ([4]; 1Ai conc. 1 uM) | RPS10 fluorescence ratio to control ([4]; 1Ai conc. 2 uM) | RPS10 fluorescence ratio to control ([4]; 1Ai conc. 4 uM) | also measured |
| --- | --- | --- | --- | --- | --- | --- | --- | --- | --- | --- | --- | --- | --- | --- | --- | --- | --- | --- | --- | --- | --- |
| O=S(=O)(c1ccccc1)N1CCN(C2c3ccccc3-c3ccccc32)CC1 [1Ai-9025] | 0.9827 and 0.9579 | 0.9655 and 0.9562 | 0.9303 and 0.9366 | 0.9516 and 0.9059 | 0.9297 and 0.9235 | 0.9058 and 0.9493 | 0.9688 and 0.9828 | 0.9874 and 1.077 | 1.153 and 1.164 | 1.25 and 1.3257 | No binding | No binding | 17 µM | 0.7517 | 4.8 µM | – | – | – | – | – | – |
| COc1ccc(C=C2CSc3ccc(Cl)cc3C2=O)cc1O [1Ai-5175] | 0.9293 and 0.8251 | 0.9438 and 0.8466 | 0.9705 and 0.8212 | 0.5643 and 0.7297 | 0.4919 and 0.7019 | 0.4802 and 0.6176 | 0.3895 and 0.4949 | 0.3105 and 0.4413 | 0.2231 and 0.3132 | 0.1792 and 0.2884 | – | – | 16 µM | 1.243 | 6.7 µM | 0.6015 | 0.7077 | 1.288 | 1.156 | 1.025 | IC50 ([1]; eIF1A, from the titration data, read-out: IC50 (eIF1A titration block)): 6.02 µM; IC50 ([1]; summary table, fluorescence binding assay, read-out: IC50 concentration (µM), WT eIF1A): 6 µM; RPS10 fluorescence ratio to control ([4]; 1Ai conc. 8 uM): 0.4718; RPS10 fluorescence ratio to control ([4]; 1Ai conc. 16 uM): 0.1497; RPS10 fluorescence ratio to control ([4]; 1Ai conc. 32 uM): 0.1533; RPS10 fluorescence ratio to control ([4]; 1Ai conc. 64 uM): 0.2655; RPS10 fluorescence ratio to control ([4]; 1Ai conc. 256 uM): 0.2335; IC50 [4, 7]: 6.7 µM; IC50 ([4]; read-out: RPS10 IC50): 6.7 µM |
| C=CCNC(=O)CN1CCN(Cc2nc3cc(-c4ccc(Cl)cc4)sc3c(=O)[nH]2)CC1 [1Ai-1524] | 1.099 and 1 | 1.123 and 1.057 | 1.12 and 1.013 | 1.158 and 0.9647 | 1.086 and 0.8847 | 0.9254 and 0.8076 | 0.9496 and 0.7767 | 1.01 and 0.848 | 0.9931 and 0.7702 | 1.036 and 1.149 | No binding | No binding | 30 µM | 0.7201 | 16.8 µM | 1.173 | 1.067 | 0.76 | 0.8336 | 0.607 | RPS10 fluorescence ratio to control ([4]; 1Ai conc. 8 uM): 0.7612; RPS10 fluorescence ratio to control ([4]; 1Ai conc. 16 uM): 0.4083; RPS10 fluorescence ratio to control ([4]; 1Ai conc. 32 uM): 0.3654; RPS10 fluorescence ratio to control ([4]; 1Ai conc. 64 uM): 0.4197; RPS10 fluorescence ratio to control ([4]; 1Ai conc. 256 uM): 0.05131; IC50 [4, 7]: 16.8 µM; IC50 ([4]; read-out: RPS10 IC50): 16.8 µM |
